# Test results published in patent publication US11738008B2, “N-methyl-D-aspartic acid receptor modulators” (Emory University, priority 2018, dated 2023).
# Where two headings read alike, the source gives them in different places.
# Tests used:
# rat GluN1/GluN2C [1] = target: rat GluN1/GluN2C (Rattus norvegicus, UniProt P35439+Q00961); experiment: Two-electrode voltage clamp recordings in Xenopus laevis oocytes, potentiation of GluN1/GluN2C; type: cell-based
# Experimental: (§1) Xenopus laevis oocytes were purchased unfertilized from Ecocyte (Austin, Tex.). The oocytes were injected with mRNA to express recombinant rat GluN1/GluN2A, GluN1/GluN2B, GluN1/GluN2C, and GluN1/GluN2D and two-electrode voltage clamp (TEVC) recordings were performed. Drs. S. Heinemann (Salk Institute), S. Nakanishi (Kyoto University), and P. Seeburg (University of Heidelberg) provided the cDNAs for rat GluN1-1a (GenBank accession numbers U11418 and U08261, referred to as GluN1 henceforth), GluN2A (D13211), GluN2B (U11419), GluN2C (M91563), and GluN2D (D13213). GluN2C and GluN2D were altered according to literature precedent. […] To prevent the current increase typically seen during experiments with oocytes expressing GluN1/GluN2A receptors, the oocytes were either injected with 20 nL of 100 mM K-BAPTA (potassium 1,2-bis(o-aminophenoxy)ethane-N,N,N,N-tetraacetic acid) or pretreated with 50 μM BAPTA-AM (1,2-bis(o-aminophenoxy)ethane-N,N,N,N-tetraacetic acid tetraacetoxymethyl ester) for 10 minutes.
# rat GluN1/GluN2C [2] = target: rat GluN1/GluN2C (Rattus norvegicus, UniProt Q00961); experiment: as above; type: cell-based; conditions: for GluN2C Max %: maximal response, current without potentiator = 100%; for GluN2C potentiation (NE class): 30 μM
# Experimental: as §1
# rat GluN1/GluN2D [3] = target: rat GluN1/GluN2D (Rattus norvegicus, UniProt P35439+Q62645); experiment: Two-electrode voltage clamp recordings in Xenopus laevis oocytes, potentiation of GluN1/GluN2D; type: cell-based
# Experimental: as §1
# rat GluN1/GluN2D [4] = target: rat GluN1/GluN2D (Rattus norvegicus, UniProt Q62645); experiment: as above; type: cell-based; conditions: for GluN2D Max %: maximal response, current without potentiator = 100%; for GluN2D potentiation (NE class): 30 μM
# Experimental: as §1
# [5] = tested on: GluN2A/B, AMPAR, or kainate receptors; conditions: previously described; cited from earlier work
# [6] = tested on: fear and extinction learning; conditions: mice; Ogden et al. 2014; cited from earlier work
# GluN2C/D = conditions: Mullasseril et al. 2010; read-out: potency at GluN2C/D; cited from earlier work
# [7] = tested on: schizophrenia-like symptoms; conditions: mice; Suryavanshi et al. 2014; cited from earlier work
# [8] = nephelometer, oocyte recording solution
# rat GluN1/GluN2C (Rattus norvegicus, UniProt Q00961), sequence (Q00961 20-1237, other chains not shown): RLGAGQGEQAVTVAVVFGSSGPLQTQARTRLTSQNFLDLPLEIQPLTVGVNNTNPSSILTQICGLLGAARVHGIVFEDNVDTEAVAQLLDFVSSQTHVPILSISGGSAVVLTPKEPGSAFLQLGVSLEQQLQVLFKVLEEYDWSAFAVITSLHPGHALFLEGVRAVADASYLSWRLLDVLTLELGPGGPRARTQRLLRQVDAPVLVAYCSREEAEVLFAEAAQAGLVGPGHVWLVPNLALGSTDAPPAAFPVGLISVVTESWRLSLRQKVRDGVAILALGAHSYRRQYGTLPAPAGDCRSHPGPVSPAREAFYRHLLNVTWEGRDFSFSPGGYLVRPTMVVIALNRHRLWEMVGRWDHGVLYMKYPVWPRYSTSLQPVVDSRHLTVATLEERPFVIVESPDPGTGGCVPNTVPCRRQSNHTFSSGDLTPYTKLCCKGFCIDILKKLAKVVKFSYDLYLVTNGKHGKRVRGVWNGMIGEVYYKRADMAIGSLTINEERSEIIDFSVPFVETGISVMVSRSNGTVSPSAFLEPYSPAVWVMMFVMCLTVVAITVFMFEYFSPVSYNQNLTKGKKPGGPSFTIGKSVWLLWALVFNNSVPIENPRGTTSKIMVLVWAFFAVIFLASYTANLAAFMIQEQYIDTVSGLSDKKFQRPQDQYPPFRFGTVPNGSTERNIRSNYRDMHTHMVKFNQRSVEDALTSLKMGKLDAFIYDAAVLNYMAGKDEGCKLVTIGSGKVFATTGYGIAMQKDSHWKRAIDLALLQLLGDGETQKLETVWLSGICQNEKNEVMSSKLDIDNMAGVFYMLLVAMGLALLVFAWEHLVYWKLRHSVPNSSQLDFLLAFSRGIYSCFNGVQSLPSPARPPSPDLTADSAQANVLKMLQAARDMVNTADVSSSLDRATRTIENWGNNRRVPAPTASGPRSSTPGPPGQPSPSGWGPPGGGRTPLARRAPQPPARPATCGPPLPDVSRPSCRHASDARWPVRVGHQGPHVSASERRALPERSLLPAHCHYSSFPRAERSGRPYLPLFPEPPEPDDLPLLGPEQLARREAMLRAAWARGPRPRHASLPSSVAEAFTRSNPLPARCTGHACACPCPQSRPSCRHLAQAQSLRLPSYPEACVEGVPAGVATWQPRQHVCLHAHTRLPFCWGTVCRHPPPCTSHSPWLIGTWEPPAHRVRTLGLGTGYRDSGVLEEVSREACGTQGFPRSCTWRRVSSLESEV
# rat GluN1/GluN2C (Rattus norvegicus, UniProt P35439+Q00961), sequence (Q00961 20-1237, other chains not shown): as above
# rat GluN1/GluN2D (Rattus norvegicus, UniProt Q62645), sequence (Q62645 28-1323, other chains not shown): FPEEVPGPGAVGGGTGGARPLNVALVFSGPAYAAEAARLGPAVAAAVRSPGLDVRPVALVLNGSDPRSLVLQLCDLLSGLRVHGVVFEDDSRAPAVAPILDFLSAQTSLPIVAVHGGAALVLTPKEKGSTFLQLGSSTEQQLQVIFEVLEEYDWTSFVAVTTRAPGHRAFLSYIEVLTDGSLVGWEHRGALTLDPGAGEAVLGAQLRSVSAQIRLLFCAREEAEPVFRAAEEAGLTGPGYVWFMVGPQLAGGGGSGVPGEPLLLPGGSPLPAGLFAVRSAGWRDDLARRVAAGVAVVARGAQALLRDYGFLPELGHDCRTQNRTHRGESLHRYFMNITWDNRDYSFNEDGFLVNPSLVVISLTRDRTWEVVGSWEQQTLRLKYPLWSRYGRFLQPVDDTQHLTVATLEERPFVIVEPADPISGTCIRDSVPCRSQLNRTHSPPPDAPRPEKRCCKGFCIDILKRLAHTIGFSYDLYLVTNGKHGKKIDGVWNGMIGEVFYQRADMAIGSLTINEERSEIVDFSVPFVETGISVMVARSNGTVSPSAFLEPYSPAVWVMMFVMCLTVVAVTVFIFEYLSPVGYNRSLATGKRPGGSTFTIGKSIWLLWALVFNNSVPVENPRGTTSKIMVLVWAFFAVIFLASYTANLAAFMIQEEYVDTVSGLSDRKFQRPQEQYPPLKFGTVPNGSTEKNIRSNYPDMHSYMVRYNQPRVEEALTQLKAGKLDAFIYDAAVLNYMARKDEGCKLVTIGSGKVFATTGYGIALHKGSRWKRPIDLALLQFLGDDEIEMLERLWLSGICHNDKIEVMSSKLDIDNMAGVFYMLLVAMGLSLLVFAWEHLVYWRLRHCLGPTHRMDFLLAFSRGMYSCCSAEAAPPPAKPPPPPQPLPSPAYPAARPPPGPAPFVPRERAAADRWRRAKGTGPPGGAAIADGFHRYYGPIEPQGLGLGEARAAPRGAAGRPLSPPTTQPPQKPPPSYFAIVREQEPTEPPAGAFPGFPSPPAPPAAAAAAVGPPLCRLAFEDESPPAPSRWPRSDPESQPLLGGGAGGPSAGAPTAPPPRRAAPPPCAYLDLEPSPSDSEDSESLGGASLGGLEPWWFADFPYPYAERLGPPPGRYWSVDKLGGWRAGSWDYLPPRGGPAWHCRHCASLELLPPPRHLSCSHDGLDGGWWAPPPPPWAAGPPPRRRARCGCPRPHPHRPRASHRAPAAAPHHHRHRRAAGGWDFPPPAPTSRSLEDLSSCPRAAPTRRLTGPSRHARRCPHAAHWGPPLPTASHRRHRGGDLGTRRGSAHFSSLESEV
# rat GluN1/GluN2D (Rattus norvegicus, UniProt P35439+Q62645), sequence (Q62645 28-1323, other chains not shown): as above
Structure (SMILES),EC50 (rat GluN1/GluN2C [1]; read-out: GluN2C EC50) [µM],GluN2C Max % (rat GluN1/GluN2C [2]) [%],EC50 (rat GluN1/GluN2D [3]; read-out: GluN2D EC50) [µM],GluN2D Max % (rat GluN1/GluN2D [4]) [%],GluN2C (max) (%) (rat GluN1/GluN2C [2]),GluN2D (max) (%) (rat GluN1/GluN2D [4]),other results
"COc1ccc(OCC2c3sccc3CCN2C(=O)c2ccc(Cl)s2)cc1 (centres unmarked) [1180-404, (5-Chlorothiophen-2-yl)(7-((4-methoxyphenoxy)methyl)-4,7-dihydrothieno[2,3-c]pyridin-6(5H)-yl)methanone]",5.1,269,7.4,352,–,–,–
"COc1ccc(OCC2c3ccsc3CCN2C(=S)c2cccc(Cl)c2)cc1 (centres unmarked) [1180-414, (3-Chlorophenyl)(4-((4-methoxyphenoxy)methyl)-6,7-dihydrothieno[3,2-c]pyridin-5(4H)-yl)methanethione]",–,–,–,–,–,–,GluN2C potentiation (NE class) (rat GluN1/GluN2C [2]): NE (NE indicates less than 20% potentiation at 30 μM); GluN2D potentiation (NE class) (rat GluN1/GluN2D [4]): NE (NE indicates less than 20% potentiation at 30 μM)
"COc1ccc(OCC2c3sc(C)nc3CCN2C(=O)c2cccc(Cl)c2)cc1 (centres unmarked) [1180-402, (3-Chlorophenyl)(4-((4-methoxyphenoxy)methyl)-2-methyl-6,7-dihydrothiazolo[5,4-c]pyridin-5(4H)-yl)methanone]",–,–,–,–,–,–,GluN2C potentiation (NE class) (rat GluN1/GluN2C [2]): NE (NE indicates less than 20% potentiation at 30 μM); GluN2D potentiation (NE class) (rat GluN1/GluN2D [4]): NE (NE indicates less than 20% potentiation at 30 μM)
COc1ccc(OCC2c3cc(OC)c(OC)cc3CCN2C(=O)c2cccc(Cl)c2)cc1 (centres unmarked) [CIQ],–,–,–,–,233%,215%,"activity at GluN2A/B, AMPAR, or kainate receptors [5]: no activity; effect on fear and extinction learning in animal models [6]: facilitate the retention of fear and extinction learning; EC50 (GluN2C/D): 5 to 10 µM; effect on schizophrenia-like symptoms in animal models [7]: attenuate schizophrenia-like symptoms"
COc1ccc(OC[C@H]2c3cccn3CCN2C(=O)c2cccc(C(F)(F)F)c2)cc1 [R-(+)-1180-450],–,–,–,–,464%,542%,–
"COc1ccc(OCC2c3cccn3CC(=O)N2Cc2cccc(F)c2)cc1 (centres unmarked) [1180-453, 2-(3-fluorobenzyl)-1-((4-methoxyphenoxy)methyl)-1,2-dihydropyrrolo[1,2-a]pyrazin-3(4H)-one]",–,–,–,–,(348) %,(334) %,Solubility [8]: 74 µM
"COc1ccc(OCC2c3cccn3CCN2C(=O)c2cccc(C(F)(F)F)c2)cc1 (racemic) [1180-450, (1-((4-methoxyphenoxy)methyl)-3,4-dihydropyrrolo[1,2-a]pyrazin-2(1H)-yl)(3-(trifluoromethyl)phenyl)methanone]",–,–,–,–,(381) %,(288) %,EC50 (rat GluN1/GluN2C [1]; read-out: GluN2C pEC50 [95% CI] (converted)): 1.58 µM; EC50 (rat GluN1/GluN2D [3]; read-out: GluN2D pEC50 [95% CI] (converted)): 2 µM; Solubility [8]: 58 µM
"COc1ccc(OCC2c3occc3CCN2C(=O)c2cccc(Cl)c2)cc1 (centres unmarked) [1180-403, (3-Chlorophenyl)(7-((4-methoxyphenoxy)methyl)-4,7-dihydrofuro[2,3-c]pyridin-6(5H)-yl)methanone]",7.4,353,9.6,527,–,–,–
"COc1ccc(OCC2c3cnn(C)c3CCN2C(=O)c2cccc(Cl)c2)cc1 (centres unmarked) [1180-407, (3-Chlorophenyl)(4-((4-methoxyphenoxy)methyl)-1-methyl-1,4,6,7-tetrahydro-5H-pyrazolo[4,3-c]pyridin-5-yl)methanone]",–,–,–,–,–,–,GluN2C response at 100 μM (rat GluN1/GluN2C [2]; @ 100 μM): 207% @ 100 μM; GluN2D response at 100 μM (rat GluN1/GluN2D [4]; @ 100 μM): 216% @ 100 μM
"COc1ccc(OCC2c3cnn(C)c3CCN2C(=S)c2cccc(Cl)c2)cc1 (centres unmarked) [1180-413, (3-Chlorophenyl)(4-((4-methoxyphenoxy)methyl)-1-methyl-1,4,6,7-tetrahydro-5H-pyrazolo[4,3-c]pyridin-5-yl)methanethione]",–,–,–,–,–,–,GluN2C potentiation (NE class) (rat GluN1/GluN2C [2]): NE (NE indicates less than 20% potentiation at 30 μM); GluN2D potentiation (NE class) (rat GluN1/GluN2D [4]): NE (NE indicates less than 20% potentiation at 30 μM)
"COc1ccc(OCC2c3sccc3CCN2C(=O)/C=C/C(F)(F)F)cc1 (centres unmarked) [1180-405, (E)-4,4,4-trifluoro-1-(7-((4-methoxyphenoxy)methyl)-4,7-dihydrothieno[2,3-c]pyridin-6(5H)-yl)but-2-en-1-one]",13,282,13,317,–,–,–

# Second part, led by results:
EC50 (rat GluN1/GluN2C [1]; read-out: GluN2C EC50) [µM],GluN2C Max % (rat GluN1/GluN2C [2]) [%],EC50 (rat GluN1/GluN2D [3]; read-out: GluN2D EC50) [µM],GluN2D Max % (rat GluN1/GluN2D [4]) [%],GluN2C (max) (%) (rat GluN1/GluN2C [2]),GluN2D (max) (%) (rat GluN1/GluN2D [4]),Structure (SMILES),other results
3.6,320,4.7,369,–,–,"COc1ccc(OCC2c3ccsc3CCN2C(=O)c2cccc(Cl)c2)cc1 (centres unmarked) [1180-401, (3-Chlorophenyl)(4-((4-methoxyphenoxy)methyl)-6,7-dihydrothieno[3,2-c]pyridin-5(4H)-yl)methanone]",–
–,–,–,–,276%,332%,COc1ccc(OC[C@H]2c3cccn3CC(=O)N2Cc2cccc(C(F)(F)F)c2)cc1 [R-(+)-1180-447],–
3.8,288,3.5,391,–,–,"COc1ccc(OCC2c3sccc3CCN2C(=O)c2cccc(Cl)c2)cc1 (centres unmarked) [1180-400, (3-Chlorophenyl)(7-((4-methoxyphenoxy)methyl)-4,7-dihydrothieno[2,3-c]pyridin-6(5H)-yl)methanone]",–
11,194,15,238,–,–,"COc1ccc(OCC2c3cnsc3CCN2C(=O)c2cccc(Cl)c2)cc1 (centres unmarked) [1180-411, (3-Chlorophenyl)(4-((4-methoxyphenoxy)methyl)-6,7-dihydroisothiazolo[4,5-c]pyridin-5(4H)-yl)methanone]",–
